17 molecules from US20260132132A1, “3A,4,5,6-TETRAHYDRO-1 H-PYRAZOLO[3,4-C]PYRIDIN-7(7AH)-ONE DERIVATIVES AS FACTOR XIIA INHIBITORS” (KALVISTA PHARMACEUTICALS LIMITED, priority 2022, published 2026) can be followed below.

This assay has as its target T1, Human Factor XIIa (hFXIIa) (Homo sapiens, UniProt P00748).
T1 construct: purchased Enzyme Research Laboratories
T1 sequence (P00748 373-615 limits assumed): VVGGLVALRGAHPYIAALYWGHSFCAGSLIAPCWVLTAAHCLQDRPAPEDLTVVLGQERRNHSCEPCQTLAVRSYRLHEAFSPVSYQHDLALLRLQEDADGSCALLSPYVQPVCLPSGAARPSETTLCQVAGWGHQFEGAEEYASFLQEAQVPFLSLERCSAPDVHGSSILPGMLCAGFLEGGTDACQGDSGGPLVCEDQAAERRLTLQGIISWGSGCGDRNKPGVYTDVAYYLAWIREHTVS
T1 sequence (P00748 20-372 partner limits assumed): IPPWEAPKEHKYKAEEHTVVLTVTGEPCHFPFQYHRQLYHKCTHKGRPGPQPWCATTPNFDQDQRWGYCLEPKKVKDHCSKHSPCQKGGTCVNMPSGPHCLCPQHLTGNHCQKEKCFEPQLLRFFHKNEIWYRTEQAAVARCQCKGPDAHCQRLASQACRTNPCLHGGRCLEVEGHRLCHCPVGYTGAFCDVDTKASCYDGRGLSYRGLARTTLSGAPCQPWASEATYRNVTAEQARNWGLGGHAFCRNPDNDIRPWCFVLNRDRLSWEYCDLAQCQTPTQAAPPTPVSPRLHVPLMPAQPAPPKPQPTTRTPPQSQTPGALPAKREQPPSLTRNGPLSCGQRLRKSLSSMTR
In words: Determination of Human Factor XIIa (hFXIIa) inhibition, fluorogenic substrate IC50 assay. Format: biochemical. The following applies: fluorogenic substrate H-DPro-Phe-Arg-AFC at Km, 25° C., read-out: Human FXIIa IC50. The method, then: Determination of Human Factor XIIa (hFXIIa) inhibition
The Km for the cleavage of the substrate by hFXIIa was determined by standard transformation of the Michaelis-Menten equation, with subsequent inhibition assays performed at substrate Km concentration.
Consider `CCN1CCc2ccc(N3CCc4c(C(=O)NCc5cc(C)n[nH]5)nn(-c5cccc(Cl)c5)c4C3=O)cc2C1` [Example 1086, 1-(3-chlorophenyl)-6-(2-ethyl-1,2,3,4-tetrahydroisoquinolin-7-yl)-N-((3-methyl-1H-pyrazol-5-yl)methyl)-7-oxo-4,5,6,7-tetrahydro-1H-pyrazolo[3,4-c]pyridine-3-carboxamide], for which the IC50 lay within 100 to 300 nM.
Regarding `O=C(NCC1CC1)c1nn(-c2cccc(Cl)c2)c2c1CCN(c1ccc3c(c1)CN(CCCO)CC3)C2=O` [Example 1087, 1-(3-chlorophenyl)-N-(cyclopropylmethyl)-6-(2-(3-hydroxypropyl)-1,2,3,4-tetrahydroisoquinolin-7-yl)-7-oxo-4,5,6,7-tetrahydro-1H-pyrazolo[3,4-c]pyridine-3-carboxamide], the IC50 was 100 to 300 nM.
Turning to `Cn1nccc1CNC(=O)c1nn(-c2cccc(Cl)c2)c2c1CCN(c1ccc3c(c1)CN(CCO)CC3)C2=O` [Example 1088, 1-(3-chlorophenyl)-6-(2-(2-hydroxyethyl)-1,2,3,4-tetrahydroisoquinolin-7-yl)-N-((1-methyl-1H-pyrazol-5-yl)methyl)-7-oxo-4,5,6,7-tetrahydro-1H-pyrazolo[3,4-c]pyridine-3-carboxamide], the half-inhibitory concentration (IC50) lay within 100 to 300 nM.
For `CCN1CCc2ccc(N3CCc4c(C(=O)N[C@H]5CCOC5)nn(-c5cccc(Cl)c5)c4C3=O)cc2C1` [Example 1090, (S)-1-(3-chlorophenyl)-6-(2-ethyl-1,2,3,4-tetrahydroisoquinolin-7-yl)-7-oxo-N-(tetrahydrofuran-3-yl)-4,5,6,7-tetrahydro-1H-pyrazolo[3,4-c]pyridine-3-carboxamide], the 50% inhibitory concentration (IC50) is 100 to 300 nM.
The value for `CCN1CCc2ccc(N3CCc4c(C(=O)N[C@@H]5CCOC5)nn(-c5cccc(Cl)c5)c4C3=O)cc2C1` [Example 1091, (R)-1-(3-chlorophenyl)-6-(2-ethyl-1,2,3,4-tetrahydroisoquinolin-7-yl)-7-oxo-N-(tetrahydrofuran-3-yl)-4,5,6,7-tetrahydro-1H-pyrazolo[3,4-c]pyridine-3-carboxamide] was 100 to 300 nM; that for `CCN1CCc2ccc(N3CCc4c(C(=O)NC5C6COCC65)nn(-c5cccc(Cl)c5)c4C3=O)cc2C1` (centres unmarked) [Example 1093, N-(3-oxabicyclo[3.1.0]hexan-6-yl)-1-(3-chlorophenyl)-6-(2-ethyl-1,2,3,4-tetrahydroisoquinolin-7-yl)-7-oxo-4,5,6,7-tetrahydro-1H-pyrazolo[3,4-c]pyridine-3-carboxamide] was 100 to 300 nM.
The value for `COC(=O)CN1CCc2ccc(N3CCc4c(C(=O)NCC5CC5)nn(-c5cccc(Cl)c5)c4C3=O)cc2C1` [Example 1094, methyl 2-(7-(1-(3-chlorophenyl)-3-((cyclopropylmethyl)carbamoyl)-7-oxo-1,4,5,7-tetrahydro-6H-pyrazolo[3,4-c]pyridin-6-yl)-3,4-dihydroisoquinolin-2(1H)-yl)acetate] was 1000 to 3000 nM; that for `O=C(O)CN1CCc2ccc(N3CCc4c(C(=O)NCC5CC5)nn(-c5cccc(Cl)c5)c4C3=O)cc2C1` [Example 1095, 2-(7-(1-(3-chlorophenyl)-3-((cyclopropylmethyl)carbamoyl)-7-oxo-1,4,5,7-tetrahydro-6H-pyrazolo[3,4-c]pyridin-6-yl)-3,4-dihydroisoquinolin-2(1H)-yl)acetic acid] was 1000 to 3000 nM; that for `CC(C)(O)CN1CCc2ccc(N3CCc4c(C(=O)NCC5CC5)nn(-c5cccc(Cl)c5)c4C3=O)cc2C1` [Example 1096, 1-(3-chlorophenyl)-N-(cyclopropylmethyl)-6-(2-(2-hydroxy-2-methylpropyl)-1,2,3,4-tetrahydroisoquinolin-7-yl)-7-oxo-4,5,6,7-tetrahydro-1H-pyrazolo[3,4-c]pyridine-3-carboxamide] was 300 to 1000 nM.
`O=C(NCC1CC1)c1nn(-c2cccc(Cl)c2)c2c1CCN(c1ccc3c(c1)CN(CC1CC1(F)F)CC3)C2=O` (centres unmarked) [Example 1097, 1-(3-chlorophenyl)-N-(cyclopropylmethyl)-6-(2-((2,2-difluorocyclopropyl)methyl)-1,2,3,4-tetrahydroisoquinolin-7-yl)-7-oxo-4,5,6,7-tetrahydro-1H-pyrazolo[3,4-c]pyridine-3-carboxamide]: the 50% inhibitory concentration (IC50) lay within 1000 to 3000 nM.
With `NCCN1CCc2ccc(N3CCc4c(C(=O)NCC5CC5)nn(-c5cccc(Cl)c5)c4C3=O)cc2C1` [Example 1098, 6-(2-(2-aminoethyl)-1,2,3,4-tetrahydroisoquinolin-7-yl)-1-(3-chlorophenyl)-N-(cyclopropylmethyl)-7-oxo-4,5,6,7-tetrahydro-1H-pyrazolo[3,4-c]pyridine-3-carboxamide], the half-inhibitory concentration (IC50) lay in the range of 100 to 300 nM.
For the molecule `N#CCN1CCc2ccc(N3CCc4c(C(=O)NCC5CC5)nn(-c5cccc(Cl)c5)c4C3=O)cc2C1` [Example 1100, 1-(3-chlorophenyl)-6-(2-(cyanomethyl)-1,2,3,4-tetrahydroisoquinolin-7-yl)-N-(cyclopropylmethyl)-7-oxo-4,5,6,7-tetrahydro-1H-pyrazolo[3,4-c]pyridine-3-carboxamide], the concentration for half-maximal inhibition (IC50) is 1000 to 3000 nM.
The value for `C[C@@H](O)CN1CCc2ccc(N3CCc4c(C(=O)NCC5CC5)nn(-c5cccc(Cl)c5)c4C3=O)cc2C1` [Example 1101, (R)-1-(3-chlorophenyl)-N-(cyclopropylmethyl)-6-(2-(2-hydroxypropyl)-1,2,3,4-tetrahydroisoquinolin-7-yl)-7-oxo-4,5,6,7-tetrahydro-1H-pyrazolo[3,4-c]pyridine-3-carboxamide] was 300 to 1000 nM; that for `O=C(NCC1CC1)c1nn(-c2cccc(Cl)c2)c2c1CCN(c1ccc3c(c1)CN(CC1CCCC1)CC3)C2=O` [Example 1102, 1-(3-chlorophenyl)-6-(2-(cyclopentylmethyl)-1,2,3,4-tetrahydroisoquinolin-7-yl)-N-(cyclopropylmethyl)-7-oxo-4,5,6,7-tetrahydro-1H-pyrazolo[3,4-c]pyridine-3-carboxamide] was 300 to 1000 nM.
The value for `O=C(NCC1CC1)c1nn(-c2cccc(Cl)c2)c2c1CCN(c1ccc3c(c1)CN(C1CCC1)CC3)C2=O` [Example 1103, 1-(3-chlorophenyl)-6-(2-cyclobutyl-1,2,3,4-tetrahydroisoquinolin-7-yl)-N-(cyclopropylmethyl)-7-oxo-4,5,6,7-tetrahydro-1H-pyrazolo[3,4-c]pyridine-3-carboxamide] was 100 to 300 nM.
To `O=C(NCC1CC1)c1nn(-c2cccc(Cl)c2)c2c1CCN(c1ccc3c(c1)CN(Cc1ccn[nH]1)CC3)C2=O` [Example 1104, 6-(2-((1H-pyrazol-5-yl)methyl)-1,2,3,4-tetrahydroisoquinolin-7-yl)-1-(3-chlorophenyl)-N-(cyclopropylmethyl)-7-oxo-4,5,6,7-tetrahydro-1H-pyrazolo[3,4-c]pyridine-3-carboxamide] belongs 300 to 1000 nM.
On to `O=C(NCc1ccoc1)c1nn(-c2cccc(Cl)c2)c2c1CCN(c1ccc3c(c1)CN(CCO)CC3)C2=O` [Example 1105, 1-(3-chlorophenyl)-N-(furan-3-ylmethyl)-6-(2-(2-hydroxyethyl)-1,2,3,4-tetrahydroisoquinolin-7-yl)-7-oxo-4,5,6,7-tetrahydro-1H-pyrazolo[3,4-c]pyridine-3-carboxamide], for which the IC50 lay within 100 to 300 nM.

A word on the IC50: it is the concentration needed to halve the response being measured.
